In ChEMBL document CHEMBL1147136, “Constituents of Oxandra cf. xylopioides with anti-inflammatory activity” (J Nat Prod, 2007):
Calls of active or inactive are those of the source. No cut-off for these calls is given here.

Assays:
[1] = system: Mus musculus; assay: Reduction of carrageenan-induced paw edema volume in mouse at 125 mg/kg, po after 1 hr relative to control; assay type: functional; parameters: scale not given: the % may be the effect or the level left
[2] = system: Mus musculus; assay: Reduction of carrageenan-induced paw edema volume in mouse at 125 mg/kg, po after 3 hrs relative to control; assay type: functional; parameters: scale not given: the % may be the effect or the level left
[3] = system: Mus musculus; assay: Reduction of carrageenan-induced paw edema volume in mouse at 125 mg/kg, po after 5 hrs relative to control; assay type: functional; parameters: scale not given: the % may be the effect or the level left
[4] = system: RAW264.7; assay: Cytotoxicity against mouse RAW264.7 cells at 100 uM by MTT assay; assay type: cell-based; conditions: raw264.7, 100 µM
[5] = system: RAW264.7; assay: Effect on IL1-beta production in mouse RAW264.7 cells at 100 uM; assay type: functional
[6] = system: RAW264.7; assay: Reduction of IL1-beta mRNA synthesis in mouse RAW264.7 cells at 100 uM; assay type: functional, cell-based

| Compound | Activity [1] | Activity [2] | Activity [3] | Activity [4] | Activity [5] | Activity [6] |
| --- | --- | --- | --- | --- | --- | --- |
| CC(C)[C@@]1(C)CCC([C@H]2CC[C@@]3(C)[C@@H]4CC[C@H]5C(C)(C)[C@@H](O)CC[C@@]56C[C@@]46CC[C@]23C)CO1 (stereo partly drawn) [BERENJENOL] | 44% | 64% | 51% | Not Active |  |  |
| COc1cc(C)c(OC)c(O)c1C(C)C [ISOESPINTANOL] |  | 43% |  | Not Active | 72% | Active |
